Laboratory results: patent US8530667B2, “Herbicides” (Syngenta Limited, priority 2007, dated 2013)

What was measured:
Assay type in all cases: in vivo
[1] = test system: Alopecurus myosuroides (ALOMY); experiment: Example B post-emergence herbicidal activity, glasshouse pot test; settings: 312 h, evaluated after 13 days, read-out: Post-emergence activity ALOMY (100=total damage to plant; 0=no damage to plant); for pest or weed control at 250 g/ha: rate 250 g/ha; for pest or weed control at 1000 g/ha: rate 1000 g/ha
Description: (§1) Seeds of a variety of test species were sown in standard soil in pots. After cultivation for one day (pre-emergence) or after 8 days cultivation (post-emergence) under controlled conditions in a glasshouse (at 24/16° C., day/night; 14 hours light; 65% humidity), the plants were sprayed with an aqueous spray solution derived from the formulation of the technical active ingredient in acetone/water (50:50) solution containing 0.5% Tween 20 (polyoxyethelyene sorbitan monolaurate, CAS RN 9005-64-5). The test plants were then grown in a glasshouse under controlled conditions in a glasshouse (at 24/16° C., day/night; 14 hours light; 65% humidity) and watered twice daily. After 13 days for pre and post-emergence, the test was evaluated (100=total damage to plant; 0=no damage to plant). Alopecurus myosuroides (ALOMY), Avena fatua (AVEFA), Setaria faberi (SETFA), Echinochloa crus-galli (ECHCG) and Amaranthus retoflexus (AMARE)

[2] = test system: Echinochloa crus-galli (ECHCG); experiment: as above; settings: 312 h, evaluated after 13 days, read-out: Post-emergence activity ECHCG (100=total damage to plant; 0=no damage to plant); for pest or weed control at 250 g/ha: rate 250 g/ha; for pest or weed control at 1000 g/ha: rate 1000 g/ha
Description: as §1

[3] = test system: Amaranthus retoflexus (AMARE); experiment: as above; settings: Amaranthus retroflexus, 312 h, evaluated after 13 days, read-out: Post-emergence activity AMARE (100=total damage to plant; 0=no damage to plant); for pest or weed control at 250 g/ha: rate 250 g/ha; for pest or weed control at 1000 g/ha: rate 1000 g/ha
Description: as §1

[4] = test system: Setaria faberi (SETFA); experiment: as above; settings: 312 h, evaluated after 13 days, read-out: Post-emergence activity SETFA (100=total damage to plant; 0=no damage to plant); for pest or weed control at 250 g/ha: rate 250 g/ha; for pest or weed control at 1000 g/ha: rate 1000 g/ha
Description: as §1

[5] = test system: Avena fatua (AVEFA); experiment: as above; settings: 312 h, evaluated after 13 days, read-out: Post-emergence activity AVEFA (100=total damage to plant; 0=no damage to plant); for pest or weed control at 250 g/ha: rate 250 g/ha; for pest or weed control at 1000 g/ha: rate 1000 g/ha
Description: as §1

[6] = test system: Alopecurus myosuroides (ALOMY); experiment: Example B pre-emergence herbicidal activity, glasshouse pot test; settings: 312 h, Rate 250 g/ha, evaluated after 13 days, read-out: Pre-Emergence Activity ALOMY (100=total damage to plant; 0=no damage to plant)
Description: as §1

[7] = test system: Echinochloa crus-galli (ECHCG); experiment: as above; settings: 312 h, Rate 250 g/ha, evaluated after 13 days, read-out: Pre-Emergence Activity ECHCG (100=total damage to plant; 0=no damage to plant)
Description: as §1

[8] = test system: Amaranthus retoflexus (AMARE); experiment: as above; settings: Amaranthus retroflexus, 312 h, Rate 250 g/ha, evaluated after 13 days, read-out: Pre-Emergence Activity AMARE (100=total damage to plant; 0=no damage to plant)
Description: as §1

[9] = test system: Setaria faberi (SETFA); experiment: as above; settings: 312 h, Rate 250 g/ha, evaluated after 13 days, read-out: Pre-Emergence Activity SETFA (100=total damage to plant; 0=no damage to plant)
Description: as §1

[10] = test system: Avena fatua (AVEFA); experiment: as above; settings: 312 h, Rate 250 g/ha, evaluated after 13 days, read-out: Pre-Emergence Activity AVEFA (100=total damage to plant; 0=no damage to plant)
Description: as §1

Structure (SMILES) | pest or weed control at 250 g/ha [1] [%] | pest or weed control at 250 g/ha [2] [%] | pest or weed control at 250 g/ha [3] [%] | pest or weed control at 250 g/ha [4] [%] | pest or weed control at 250 g/ha [5] [%] | pest or weed control at 250 g/ha [6] [%] | pest or weed control at 250 g/ha [7] [%] | pest or weed control at 250 g/ha [8] [%] | pest or weed control at 250 g/ha [9] [%] | pest or weed control at 250 g/ha [10] [%] | pest or weed control at 1000 g/ha [1] [%] | pest or weed control at 1000 g/ha [2] [%] | pest or weed control at 1000 g/ha [3] [%] | pest or weed control at 1000 g/ha [4] [%] | pest or weed control at 1000 g/ha [5] [%]
CCc1sc(-c2ccc(Cl)cc2)nc1C1=C(OC(=O)C(C)(C)C)[C@@H]2[C@H](C1=O)[C@H]1CC[C@@H]2O1 (racemic) [Compound P3] | 100 | 100 | 0 | 100 | 100 |  |  |  |  |  |  |  |  |  | 
CCc1sc(-c2ccc(Cl)cc2)nc1C1=C(OC(=O)C2CC2)[C@@H]2[C@H](C1=O)[C@H]1CC[C@@H]2O1 (racemic) [Compound P4, cyclopropanecarboxylic acid-4-[2-(4-chloro-phenyl)-5-ethyl-thiazol-4-yl]-5-oxo-10-oxa-tricyclo[5.2.1.0*2,6*]dec-3-en-3-yl ester] | 100 | 100 | 0 | 100 | 100 | 60 | 90 | 0 | 90 | 90 |  |  |  |  | 
CC(=O)OC1=C(c2nc(-c3ccc(Br)cn3)sc2C)C(=O)[C@H]2[C@@H]1[C@@H]1CC[C@H]2O1 (racemic) [Compound P5] | 90 | 100 | 0 | 100 | 90 | 50 | 90 | 0 | 100 | 70 |  |  |  |  | 
Cc1sc(-c2ccc(Br)cn2)nc1C1=C(OC(=O)C2CC2)[C@@H]2[C@H](C1=O)[C@H]1CC[C@@H]2O1 (racemic) [Compound P6] | 90 | 100 | 0 | 100 | 90 | 0 | 20 | 0 | 70 | 0 |  |  |  |  | 
Cc1cc(Br)ccc1-c1nc(C2=C(OC(=O)C(C)(C)C)[C@@H]3[C@H](C2=O)[C@H]2CC[C@@H]3O2)c(C)s1 (racemic) [Compound P7] | 100 | 100 | 0 | 100 | 100 | 100 | 100 | 0 | 100 | 100 |  |  |  |  | 
CCc1sc(-c2ccc(Br)cc2C)nc1C1=C(OC(=O)c2ccc(Cl)cc2)[C@@H]2[C@H](C1=O)[C@H]1CC[C@@H]2O1 (racemic) [Compound P8] | 100 | 100 | 0 | 100 | 100 | 90 | 100 | 0 | 100 | 30 |  |  |  |  | 
Cc1sc(-c2ccc(OC(F)F)cc2Cl)nc1C1=C(OC(=O)C(C)(C)C)[C@@H]2[C@H](C1=O)[C@H]1CC[C@@H]2O1 (racemic) [Compound P9] | 100 | 100 | 0 | 100 | 90 | 70 | 90 | 0 | 90 | 50 |  |  |  |  | 
CC(=O)OC1=C(c2nc(-c3ccc(OC(F)F)cc3F)sc2C)C(=O)[C@H]2[C@@H]1[C@@H]1CC[C@H]2O1 (racemic) [Compound P10] | 100 | 100 | 20 | 100 | 100 | 90 | 100 | 0 | 100 | 100 |  |  |  |  | 
CCc1sc(-c2ccc(Cl)cc2)cc1C1C(=O)[C@@H]2[C@H](C1=O)[C@H]1CC[C@@H]2O1 (some centres unmarked) [Compound T17, 4-[5-(4-chloro-phenyl)-2-ethyl-thiophen-3-yl]-10-oxa-tricyclo[5.2.1.0*2,6*]decane-3,5-dione] |  |  |  |  |  |  |  |  |  |  | 100 | 100 | 70 | 100 | 100
Cc1sc(-c2cc(C(F)(F)F)n(C)n2)cc1C1C(=O)[C@@H]2[C@H](C1=O)[C@H]1CC[C@@H]2O1 (some centres unmarked) [Compound T18] |  |  |  |  |  |  |  |  |  |  | 20 | 20 | 0 | 40 | 0
COC(=O)c1ccc(-c2cc(C3C(=O)[C@@H]4[C@H](C3=O)[C@H]3CC[C@@H]4O3)c(C)s2)cc1 (some centres unmarked) [Compound T19] |  |  |  |  |  |  |  |  |  |  | 10 | 0 | 20 | 30 | 0
Cc1ccc(-c2nc(C3C(=O)[C@@H]4[C@H](C3=O)[C@H]3CC[C@@H]4O3)c(C)s2)cc1 (some centres unmarked) [Compound T20] | 90 | 100 | 0 | 100 | 100 | 50 | 70 | 0 | 80 | 60 |  |  |  |  | 
CCc1sc(-c2ccc(Br)cc2)nc1C1C(=O)[C@@H]2[C@H](C1=O)[C@H]1CC[C@@H]2O1 (some centres unmarked) [Compound T29] | 100 | 100 | 0 | 100 | 100 | 50 | 90 | 20 | 90 | 90 |  |  |  |  | 
Cc1sc(-c2ccc(Cl)c(Cl)c2)nc1C1C(=O)[C@@H]2[C@H](C1=O)[C@H]1CC[C@@H]2O1 (some centres unmarked) [Compound T31] | 60 | 80 | 0 | 70 | 50 | 60 | 90 | 20 | 90 | 70 |  |  |  |  | 
Cc1[se]c(-c2ccc(Cl)cc2)nc1C1C(=O)[C@@H]2[C@H](C1=O)[C@H]1CC[C@@H]2O1 (some centres unmarked) [Compound T34, 4-[2-(4-chloro-phenyl)-5-methyl-selenazol-4-yl]-10-oxa-tricyclo[5.2.1.0*2,6*]decane-3,5-dione] |  |  |  |  |  | 40 | 70 | 0 | 90 | 20 |  |  |  |  | 
